Square brackets hold non-standard residues; d marks the D form. Ends that are not written are not given here. AEEA = NCCOCCOCC(=O)O

The values below come from US20090246250A1, “COATING COMPOSITIONS HAVING IMPROVED PERFORMANCE” (priority 2008, published 2009).

Assay [1] can be described thus: Vancomycin loading onto coated titanium bead (HCl elution, HPLC). In kind it is binding. The following applies: peptide/polymer + vancomycin mixture 30 mins 20° C., PBS washes, 100 mM HCl eluate by HPLC. As for the experimental part: The experimental procedure used for the embodiments described above was as follows. […] All three components were mixed and then applied to the metal bead. […] All three components were mixed and then applied to the metal bead. […] The mixtures were applied to the metal beads and incubated for 30 mins at 20° C. with 700 rpm shaking. The beads were washed three times with 350 ul PBS. Beads were analyzed as follows: 200 ul of 100 mM HCl was added to each bead and incubated for 30 mins at 20° C. with 1,000 rpm shaking. The eluate from each bead was analyzed by HPLC using Phenomenex Luna 3 um column, 50×4.60 mm. Output was compared to a standard curve for vancomycin to determine the amount of vancomycin retained onto the metal bead.

Assay [2] concerns Staphylococcus aureus strain MZ100. In words: Tibia pin assay: coated titanium pins with vancomycin, bacterial cfu count. In kind it is cell-based. Also on record: key: —: “-” means no cfus; “many” means too many cfus to count, as they converge into one spot. The following applies: 3 hours 37° C. An excerpt: In this assay, titanium pins were used as a model for tibia pins. Briefly, sterile pins were first coated with biofunctional composition (“SEQ ID NO:124-linker-SEQ ID NO:122”) comprising a substrate-binding peptide having binding specificity for vancomycin (“SEQ ID NO:124”) linked to a substrate-binding peptide having binding specificity for metal (“SEQ ID NO:122”), or a composition of the invention formed from compound comprising the biofunctional composition covalently coupled to fatty acid. The respective coatings also include vancomycin bound thereto. The coated pins were then placed in a silicone tube containing liquid bacterial growth medium and inoculated with bacteria. After incubation, the pins were removed, and then the liquid growth medium was serially diluted. The serial dilutions were inoculated onto bacterial culture plates, the plates were incubated, and counted on the plates were bacterial colonies.
In this assay, test samples (biofunctional composition (Table 6, “BC”) or compositions 133, 134, 135, 136 139) each were used to coat a pin by incubating the test sample (in a range of from about 0.8 mM to about 1 mM) with 2.5 μl of a 10 mM vancomycin solution and PBS to a final volume of 250 μl in a microtube (3 pins per tube) for 60 minutes at room temperature with occasional agitation. In a piece of silicone tubing (1.5 mm inner diameter, 50 mm long), added is tryptic soy broth+0.2% glucose, the coated pin, and 10^3 colony forming units (cfu) of Staphylococcus aureus strain MZ100 in either a 20 μl inoculum, 40 μl inoculum, or 60 μl inoculum. The tubing is clamped closed, and the tubing is incubated for 37° C. for 3 hours. After 3 hours, serial dilutions (1:10, 1:100, 1:1000) were made of the culture media from each tubing, and 10 μl of the undiluted culture medium and of each dilution were spotted onto the bacterial culture plate. The bacterial culture plate was incubated overnight at 37° C., and then the cfus were counted. The results, a composite of different assay runs, are shown in Table 6 (“-” means no cfus; “many” means too many cfus to count, as they converge into one spot; “NT” means not tested).

As to “MA-AHx-SSCLIDIYGVCHN FDAY-miniPeg-miniPeg-YFRAFRKFVKPFKRAFKGSSK(Biotin) [SEQ ID NO:165]”, the “Vancomycin Load” value in assay [1] was 1,700 pmol/cm2.
“SSSCLIDMYGVCHNFDGAYDSSRG [Compound 134, AUD-AUD-AUD-AUD-SEQ ID NO:124-linker-SEQ ID NO:122]”: in assay [2] (inoculum volume 20 μl), the “cfu 1:10” value is “—”, the “cfu 1:100” value was “—”, the “cfu 1:1000” value is recorded as “—” and the cfu undiluted entry is reported as “—”. For the same substance, in assay [2] (inoculum volume 40 μl), the “cfu 1:10” value is 6 cfu, the “cfu 1:100” value worked out at 1 cfu, the “cfu 1:1000” value is listed as “—” and the cfu undiluted result is on record as “many”. Further, in assay [2] (inoculum volume 60 μl), the “cfu 1:10” value was found to be 17 cfu, the “cfu 1:100” value is 5 cfu, the “cfu 1:1000” value was “—” and the cfu undiluted entry is on record as “many”.
With “SSSCLIDMYGVCHNFDGAYDSSRG-miniPeg-miniPeg-SSHRTNHKKNNPKKKNKTRGSSGK (SSSCLIDMYGVCHNFDGAYDSSRG[AEEA][AEEA]SSHRTNHKKNNPKKKNKTRGSSGK; not fully specified (bridges); printed as SSSCLIDMYGVCHNFDGAYDSSRG-miniPeg-miniPeg-SSHRTNHKKNNPKKKNKTRGSSGK; cysteine pairing not given here) [SEQ ID NO:163]”, in assay [1], the “Vancomycin Load” value is 54 pmol/cm2.
